Source: patent US10065973B2, “Substituted aminothiazolopyrimidinedione for the treatment and prophylaxis of virus infection” (Hoffmann-La Roche Inc., priority 2016, dated 2018)

These compounds were tested against human TLR7 (Homo sapiens (Human), UniProt Q9NYK1) (assay: HEK293-Blue-hTLR-7 cells assay (SEAP reporter)). Details: 20 hours incubation.
Assay type: cell-based
Excerpt: HEK293-Blue-hTLR-7 Cells Assay: A stable HEK293-Blue-hTLR-7 cell line was purchased from InvivoGen (Cat.#: hkb-htlr7, San Diego, Calif., USA). These cells were designed for studying the stimulation of human TLR7 by monitoring the activation of NF-κB. A SEAP (secreted embryonic alkaline phosphatase) reporter gene was placed under the control of the IFN-β minimal promoter fused to five NF-κB and AP-1-binding sites. The SEAP was induced by activating NF-κB and AP-1 via stimulating HEK-Blue hTLR7 cells with TLR7 ligands. Therefore the reporter expression was regulated by the NF-κB promoter upon stimulation of human TLR7. The cell culture supernatant SEAP reporter activity was determined using QUANTI-Blue™ kit (Cat.#: rep-qb1, Invivogen, San Diego, Ca, USA) at a wavelength of 640 nm, a detection medium that turns purple to blue in the presence of alkaline phosphatase. HEK293-Blue-hTLR7 cells were incubated at a density of 250,000˜450,000 cells/mL in a volume of 180 μL in a 96-well plate in Dulbecco's Modified Eagle's medium (DMEM) containing 4.5 g/l glucose, 50 U/ml penicillin, […] streptomycin, […] Normocin, 2 mM L-glutamine, 10% (v/v) heat-inactivated fetal bovine serum for 24 h. Then the HEK293-Blue-hTLR-7 cells were incubated with addition of 20 μL test compound in a serial dilution in the presence of final DMSO at 1% and perform incubation under 37° C. in a CO2 incubator for 20 hours. Then 20 μL of the supernatant from each well was incubated with 180 μL Quanti-blue substrate solution at 37° C. for 1-3 hours and the absorbance was read at 620˜655 nm using a spectrophotometer.

human TLR7, sequence (Q9NYK1 27-1049): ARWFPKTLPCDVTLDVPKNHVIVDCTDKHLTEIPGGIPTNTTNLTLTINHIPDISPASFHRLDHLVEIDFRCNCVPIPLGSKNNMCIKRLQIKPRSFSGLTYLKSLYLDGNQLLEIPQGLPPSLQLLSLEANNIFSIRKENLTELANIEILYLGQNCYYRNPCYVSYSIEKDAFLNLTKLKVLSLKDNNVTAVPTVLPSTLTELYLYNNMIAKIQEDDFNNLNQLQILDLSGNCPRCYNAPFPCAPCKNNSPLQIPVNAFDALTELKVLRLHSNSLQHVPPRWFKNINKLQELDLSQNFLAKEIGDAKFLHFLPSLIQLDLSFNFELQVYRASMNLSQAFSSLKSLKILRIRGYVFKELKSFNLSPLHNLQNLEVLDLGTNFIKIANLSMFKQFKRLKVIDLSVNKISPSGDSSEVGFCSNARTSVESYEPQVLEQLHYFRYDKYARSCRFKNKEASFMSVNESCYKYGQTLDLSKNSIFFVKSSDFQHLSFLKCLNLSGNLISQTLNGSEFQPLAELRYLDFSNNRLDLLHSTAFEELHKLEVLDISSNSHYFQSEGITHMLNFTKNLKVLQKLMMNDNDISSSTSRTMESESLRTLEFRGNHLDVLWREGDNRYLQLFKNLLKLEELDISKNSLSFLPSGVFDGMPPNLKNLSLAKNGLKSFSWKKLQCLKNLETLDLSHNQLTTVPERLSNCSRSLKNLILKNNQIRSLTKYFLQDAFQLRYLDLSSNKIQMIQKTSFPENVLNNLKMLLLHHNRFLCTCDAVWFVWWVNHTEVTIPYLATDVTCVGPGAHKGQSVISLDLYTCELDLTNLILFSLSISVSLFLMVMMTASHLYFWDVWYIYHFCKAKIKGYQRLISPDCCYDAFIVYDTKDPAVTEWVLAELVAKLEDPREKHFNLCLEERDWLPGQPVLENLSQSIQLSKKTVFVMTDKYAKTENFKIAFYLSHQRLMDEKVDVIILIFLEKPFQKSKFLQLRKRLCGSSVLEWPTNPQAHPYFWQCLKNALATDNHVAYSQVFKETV

Row | EC50 [µM] | SMILES
1 | 111 | CCC(O)[C@@H]1C[C@@H](CO)O[C@H]1n1c(=O)sc2c(=O)[nH]c(N)nc21 (single isomer, unassigned) [Example 3-A]
2 | 23 | CC(C)(O)[C@@H]1C[C@@H](CO)O[C@H]1n1c(=O)sc2c(=O)[nH]c(N)nc21 [Example 8, 5-Amino-3-[(2R,3S,5S)-5-(hydroxymethyl)-3-(1-hydroxy-1-methyl-ethyl)tetrahydrofuran-2-yl]-6H-thiazolo[4,5-d]pyrimidine-2,7-dione]
3 | 8.4 | CC[C@H](O)[C@@H]1C[C@@H]([C@@H](C)OC(C)=O)[C@H](n2c(=O)sc3c(=O)[nH]c(N)nc32)O1 [Example 9-A, [(1R)-1-[(2R,3S,5S)-2-(5-Amino-2,7-dioxo-6H-thiazolo[4,5-d]pyrimidin-3-yl)-5-[(1S)-1-hydroxypropyl]tetrahydrofuran-3-yl]ethyl] acetate]
4 | 9.3 | CC[C@H](O)[C@@H]1C[C@@H]([C@H](C)OC(C)=O)[C@H](n2c(=O)sc3c(=O)[nH]c(N)nc32)O1 [Example 9-B, [(1S)-1-[(2R,3S,5S)-2-(5-amino-2,7-dioxo-6H-thiazolo[4,5-d]pyrimidin-3-yl)-5-[(1S)-1-hydroxypropyl]tetrahydrofuran-3-yl]ethyl] acetate]
5 | 2.7 | CC[C@H](O)[C@@H]1C[C@@H]([C@@H](C)O)[C@H](n2c(=O)sc3c(=O)[nH]c(N)nc32)O1 [Example 10-A, 5-Amino-3-[(2R,3S,5S)-3-[(1R)-1-hydroxyethyl]-5-[(1S)-1-hydroxypropyl]tetrahydrofuran-2-yl]-6H-thiazolo[4,5-d]pyrimidine-2,7-dione]
6 | 35 | CC[C@H](O)[C@@H]1C[C@@H]([C@H](C)O)[C@H](n2c(=O)sc3c(=O)[nH]c(N)nc32)O1 [Example 10-B, 5-amino-3-[(2R,3S,5S)-3-[(1S)-1-hydroxyethyl]-5-[(1S)-1-hydroxypropyl]tetrahydrofuran-2-yl]-6H-thiazolo[4,5-d]pyrimidine-2,7-dione]
7 | 26 | CCOC(=O)O[C@H](C)[C@@H]1C[C@@H]([C@@H](O)CC)O[C@H]1n1c(=O)sc2c(=O)[nH]c(N)nc21 [Example 11, [(1R)-1-[(2R,3S,5S)-2-(5-Amino-2,7-dioxo-6H-thiazolo[4,5-d]pyrimidin-3-yl)-5-[(1S)-1-hydroxypropyl]tetrahydrofuran-3-yl]ethyl] ethyl carbonate]
8 | 36 | CC[C@H](O)[C@@H]1C[C@@H]([C@@H](C)OC)[C@H](n2c(=O)sc3c(=O)[nH]c(N)nc32)O1 [Example 13, 5-Amino-3-[(2R,3S,5S)-5-[(1S)-1-hydroxypropyl]-3-[(1R)-1-methoxyethyl]tetrahydrofuran-2-yl]-6H-thiazolo[4,5-d]pyrimidine-2,7-dione]
9 | 35 | CC[C@H](O)[C@@H]1C[C@@H]([C@H](C)OC)[C@H](n2c(=O)sc3c(=O)[nH]c(N)nc32)O1 [Example 16, 5-Amino-3-[(2R,3S,5S)-5-[(1S)-1-hydroxypropyl]-3-[(1S)-1-methoxyethyl]tetrahydrofuran-2-yl]-6H-thiazolo[4,5-d]pyrimidine-2,7-dione]
10 | 19 | CC[C@H](O)[C@@H]1C[C@@H](C(C)(C)OC(C)=O)[C@H](n2c(=O)sc3c(=O)[nH]c(N)nc32)O1 [Example 19, [1-[(2R,3S,5S)-2-(5-Amino-2,7-dioxo-6H-thiazolo[4,5-d]pyrimidin-3-yl)-5-[(1S)-1-hydroxypropyl]tetrahydrofuran-3-yl]-1-methyl-ethyl] acetate]
11 | 3 | CC[C@H](O)[C@@H]1C[C@@H](C(C)(C)O)[C@H](n2c(=O)sc3c(=O)[nH]c(N)nc32)O1 [Example 20, 5-Amino-3-[(2R,3S,5S)-3-(1-hydroxy-1-methyl-ethyl)-5-[(1S)-1-hydroxypropyl]tetrahydrofuran-2-yl]-6H-thiazolo[4,5-d]pyrimidine-2,7-dione]

The remaining lines, values behind:

Row | SMILES | EC50 [µM]
12 | CC(O)[C@@H]1C[C@@H](CO)O[C@H]1n1c(=O)sc2c(=O)[nH]c(N)nc21 (single isomer, unassigned) [Example 1-B] | 39
13 | Nc1nc2c(sc(=O)n2[C@@H]2O[C@H](CO)C[C@H]2C(O)C2CC2)c(=O)[nH]1 (single isomer, unassigned) [Example 2-A] | 156
14 | Nc1nc2c(sc(=O)n2[C@@H]2O[C@H](CO)C[C@H]2C(O)c2ccccc2)c(=O)[nH]1 (single isomer, unassigned) [Example 4-A] | 205
15 | COc1ccccc1C(O)[C@@H]1C[C@@H](CO)O[C@H]1n1c(=O)sc2c(=O)[nH]c(N)nc21 (single isomer, unassigned) [Example 5-A] | 111
16 | Nc1nc2c(sc(=O)n2[C@@H]2O[C@H](CO)C[C@H]2C(O)c2ccccc2Cl)c(=O)[nH]1 (single isomer, unassigned) [Example 6-A] | 79
17 | CC[C@H](O)[C@@H]1C[C@@H]([C@H](O)c2ccccc2)[C@H](n2c(=O)sc3c(=O)[nH]c(N)nc32)O1 (single isomer, unassigned) [Example 18-A] | 10.4
18 | CC[C@H](O)[C@@H]1C[C@@H]([C@H](O)c2ccccc2)[C@H](n2c(=O)sc3c(=O)[nH]c(N)nc32)O1 (single isomer, unassigned) [Example 18-B] | 9.7
19 | Nc1nc2c(sc(=O)n2[C@@H]2O[C@H](CO)C[C@H]2[C@H](O)c2ccccn2)c(=O)[nH]1 [Example 7, 5-Amino-3-[(2R,3S,5S)-5-(hydroxymethyl)-3-[(S)-hydroxy(2-pyridyl)methyl]tetrahydrofuran-2-yl]-6H-thiazolo[4,5-d]pyrimidine-2,7-dione] | 225
20 | CC[C@H](O)[C@@H]1C[C@@H]([C@@H](C)OC(=O)c2ccccc2)[C@H](n2c(=O)sc3c(=O)[nH]c(N)nc32)O1 [Example 12, [(1R)-1-[(2R,3S,5S)-2-(5-Amino-2,7-dioxo-6H-thiazolo[4,5-d]pyrimidin-3-yl)-5-[(1S)-1-hydroxypropyl]tetrahydrofuran-3-yl]ethyl] benzoate] | 6.5
21 | CC[C@H](O)[C@@H]1C[C@@H]([C@@H](C)OCc2ccccc2)[C@H](n2c(=O)sc3c(=O)[nH]c(N)nc32)O1 [Example 14, 5-Amino-3-[(2R,3S,5S)-3-[(1R)-1-benzyloxyethyl]-5-[(1S)-1-hydroxypropyl]tetrahydrofuran-2-yl]-6H-thiazolo[4,5-d]pyrimidine-2,7-dione] | 60
22 | C=CCO[C@H](C)[C@@H]1C[C@@H]([C@@H](O)CC)O[C@H]1n1c(=O)sc2c(=O)[nH]c(N)nc21 [Example 15, 3-[(2R,3S,5S)-3-[(1R)-1-Allyloxyethyl]-5-[(1S)-1-hydroxypropyl]tetrahydrofuran-2-yl]-5-amino-6H-thiazolo[4,5-d]pyrimidine-2,7-dione] | 68
23 | CC[C@H](OC(C)=O)[C@@H]1C[C@@H]([C@@H](C)O)[C@H](n2c(=O)sc3c(=O)[nH]c(N)nc32)O1 [Example 17, [(1S)-1-[(2S,4S,5R)-5-(5-Amino-2,7-dioxo-6H-thiazolo[4,5-d]pyrimidin-3-yl)-4-[(1R)-1-hydroxyethyl]tetrahydrofuran-2-yl]propyl] acetate] | 15
